From PubChem BioAssay AID342 (DTP/NCI, 2004)
Values joined by “and” are separate entries in the source; they are usually repeats but may differ in a detail not shown here. Identical values can stand only once.

Test system: Swiss mice, Sarcoma 180 sc, mean tumor weight T/C
Test: NCI In Vivo Anticancer Drug Screen. Data for tumor model Sarcoma 180 (subcutaneous) in Swiss mice
Conditions: endpoint: mean tumor weight, higher = larger tumour
Method: The antitumor activity of compounds was measured in mice bearing transplantable tumors. Survival or tumor size were measured and the results are expressed as the measurement made in the treated group (T) divided by the measurement made in the vehicle treated control group (C). The tumor model used in this assay is Sarcoma 180 (subcutaneous) in Swiss mice

Question: With CC(=O)OCC(=O)[C@@]1(O)CC[C@H]2[C@@H]3C=C(C)C4=CC(=O)CC[C@]4(C)[C@H]3[C@@H](O)C[C@@]21C as the compound, how does the T/C (dose: 6.1 mg/kg/injection, schedule: Q01DX007 (sc), vehicle: steriod suspending solution) read?
Answer: 67 % of control

Question: What about the T/C (dose: 10.0 mg/kg/injection, schedule: Q#A X014 (ip), vehicle: methylcellulose (MC)) of the same compound?
Answer: 49 % of control

Question: And the T/C (dose: 11.8 mg/kg/injection, schedule: Q01DX007 (sc), vehicle: steriod suspending solution)?
Answer: 43 % of control

Question: And the T/C (dose: 12.5 mg/kg/injection, schedule: Q01DX007 (sc), vehicle: steriod suspending solution)?
Answer: 50 % of control

Question: What about the T/C (dose: 15.0 mg/kg/injection, schedule: Q#A X014 (ip), vehicle: methylcellulose (MC)) of the same compound?
Answer: 41 % of control and 44 % of control

Question: What about the T/C (dose: 17.7 mg/kg/injection, schedule: Q01DX007 (sc), vehicle: steriod suspending solution) of the same compound?
Answer: 40 % of control

Question: And the T/C (dose: 20.0 mg/kg/injection, schedule: Q01DX007 (sc), vehicle: steriod suspending solution)?
Answer: 83 % of control

Question: What about the T/C (dose: 22.5 mg/kg/injection, schedule: Q#A X014 (ip), vehicle: methylcellulose (MC)) of the same compound?
Answer: 60 % of control and 64 % of control

Question: And the T/C (dose: 25.0 mg/kg/injection, schedule: Q01DX007 (sc), vehicle: steriod suspending solution)?
Answer: 39 % of control

Question: And the T/C (dose: 26.6 mg/kg/injection, schedule: Q01DX007 (sc), vehicle: steriod suspending solution)?
Answer: 52 % of control

Question: What about the T/C (dose: 30.0 mg/kg/injection, schedule: Q01DX007 (sc), vehicle: steriod suspending solution) of the same compound?
Answer: 55 % of control

Question: And the T/C (dose: 33.75 mg/kg/injection, schedule: Q#A X014 (ip), vehicle: methylcellulose (MC))?
Answer: 31 % of control and 54 % of control

Question: And the T/C (dose: 40.0 mg/kg/injection, schedule: Q01DX007 (sc), vehicle: steriod suspending solution)?
Answer: 41 % of control

Question: What about the T/C (dose: 45.0 mg/kg/injection, schedule: Q01DX007 (sc), vehicle: steriod suspending solution) of the same compound?
Answer: 58 % of control and 64 % of control

Question: And the T/C (dose: 53.0 mg/kg/injection, schedule: Q01DX007 (sc), vehicle: steriod suspending solution)?
Answer: 71 % of control

Question: And the T/C (dose: 60.0 mg/kg/injection, schedule: Q01DX007 (sc), vehicle: steriod suspending solution)?
Answer: 36 % of control

Question: And the T/C (dose: 67.5 mg/kg/injection, schedule: Q01DX007 (sc), vehicle: steriod suspending solution)?
Answer: 60 % of control

Question: And the T/C (dose: 80.0 mg/kg/injection, schedule: Q01DX007 (sc), vehicle: steriod suspending solution)?
Answer: 53 % of control

Question: And the T/C (dose: 90.0 mg/kg/injection, schedule: Q01DX007 (sc), vehicle: steriod suspending solution)?
Answer: 31 % of control

Question: And the T/C (dose: 100.0 mg/kg/injection, schedule: Q01DX007 (sc), vehicle: steriod suspending solution)?
Answer: 26 % of control

Question: What about the T/C (dose: 120.0 mg/kg/injection, schedule: Q01DX007 (sc), vehicle: steriod suspending solution) of the same compound?
Answer: 51 % of control

Question: And the T/C (dose: 135.0 mg/kg/injection, schedule: Q01DX007 (sc), vehicle: steriod suspending solution)?
Answer: 27 % of control

Question: And the T/C (dose: 150.0 mg/kg/injection, schedule: Q01DX007 (sc), vehicle: steriod suspending solution)?
Answer: 54 % of control

Question: What about the T/C (dose: 180.0 mg/kg/injection, schedule: Q01DX007 (sc), vehicle: steriod suspending solution) of the same compound?
Answer: 32 % of control

Question: What about the T/C (dose: 202.5 mg/kg/injection, schedule: Q01DX007 (sc), vehicle: steriod suspending solution) of the same compound?
Answer: 24 % of control

Question: What does the source list for C[C@]12C=CC(=O)C=C1[C@@H](F)C[C@@H]1[C@@H]2[C@@H](O)C[C@@]2(C)[C@H]1CC[C@]2(O)C(=O)CO?
Answer: T/C (dose: 3.5 mg/kg/injection, schedule: Q#A X014 (sc), vehicle: steriod suspending solution): 85 % of control; T/C (dose: 7.0 mg/kg/injection, schedule: Q#A X014 (sc), vehicle: steriod suspending solution): 98 % of control; T/C (dose: 10.0 mg/kg/injection, schedule: Q#A X014 (sc), vehicle: steriod suspending solution): 76 % of control; T/C (dose: 15.5 mg/kg/injection, schedule: Q#A X014 (sc), vehicle: steriod suspending solution): 72 % of control; T/C (dose: 22.5 mg/kg/injection, schedule: Q#A X014 (sc), vehicle: steriod suspending solution): 67 % of control

Question: How did the T/C (dose: 31.25 mg/kg/injection, schedule: Q#A X014 (ip), vehicle: carboxymethylcellulose (CMC)) turn out when c1ccc2[nH]cnc2c1 was run?
Answer: 52 % of control

Question: And the T/C (dose: 37.12 mg/kg/injection, schedule: Q01DX007 (ip), vehicle: carboxymethylcellulose (CMC))?
Answer: 84 % of control

Question: And the T/C (dose: 46.25 mg/kg/injection, schedule: Q01DX007 (ip), vehicle: carboxymethylcellulose (CMC))?
Answer: 103 % of control

Question: And the T/C (dose: 62.5 mg/kg/injection, schedule: Q#A X014 (ip), vehicle: carboxymethylcellulose (CMC))?
Answer: 95 % of control

Question: And the T/C (dose: 74.25 mg/kg/injection, schedule: Q01DX007 (ip), vehicle: carboxymethylcellulose (CMC))?
Answer: 76 % of control

Question: What about the T/C (dose: 92.5 mg/kg/injection, schedule: Q01DX007 (ip), vehicle: carboxymethylcellulose (CMC)) of the same compound?
Answer: 94 % of control

Question: And the T/C (dose: 125.0 mg/kg/injection, schedule: Q#A X014 (ip), vehicle: carboxymethylcellulose (CMC))?
Answer: 84 % of control

Question: And the T/C (dose: 148.5 mg/kg/injection, schedule: Q01DX007 (ip), vehicle: carboxymethylcellulose (CMC))?
Answer: 76 % of control

Question: What about the T/C (dose: 185.0 mg/kg/injection, schedule: Q01DX007 (ip), vehicle: carboxymethylcellulose (CMC)) of the same compound?
Answer: 89 % of control

Question: What about the T/C (dose: 250.0 mg/kg/injection, schedule: Q#A X014 (ip), vehicle: carboxymethylcellulose (CMC)) of the same compound?
Answer: 51 % of control

Question: And the T/C (dose: 297.0 mg/kg/injection, schedule: Q01DX007 (ip), vehicle: carboxymethylcellulose (CMC))?
Answer: 62 % of control
